Experiments:
IMR32 cells = experiment: IMR32 viability with co-treatments (cell titer glo); format: cell-based; conditions: IMR32 cells, 48 hrs, combinations of doses with BBGC
Procedure: FIG. 38. PGK1 toxicity can be rescued with metabolites that are involved with GSH biosynthesis and quenching of reactive oxygen species and methylglyoxal. […] IMR32 cells treated for 48 hr in presence of indicated drugs.
PGK1 toxicity can be rescued with metabolites that are involved with GSH biosynthesis and quenching of reactive oxygen species and methylglyoxal.
IMR32 cells were treated for 48 hrs with CBR-470-1 and/or BBGC at combinations of doses in a synergy matrix (FIG. 41). […] Viability measured using cell titer glo assay (Promega). Viability decreased at higher concentrations of CBR-470-1 and BBGC start at 5 uM. […] Sensitivity of cell lines to direct inhibition of GLO1 (which detoxifies MGO) is generally correlated with sensitivity to PGK1 inhibition with CBR-470-1-consistent with MGO buildup playing a role in toxicity.

PGK1 = target: T1, PGK1 (Homo sapiens, UniProt P00558); experiment: Isothermal dose response profiling of PGK1 against GAPDH; format: binding; conditions: 57° C., 0-333 μM
T1 sequence (P00558 1-417): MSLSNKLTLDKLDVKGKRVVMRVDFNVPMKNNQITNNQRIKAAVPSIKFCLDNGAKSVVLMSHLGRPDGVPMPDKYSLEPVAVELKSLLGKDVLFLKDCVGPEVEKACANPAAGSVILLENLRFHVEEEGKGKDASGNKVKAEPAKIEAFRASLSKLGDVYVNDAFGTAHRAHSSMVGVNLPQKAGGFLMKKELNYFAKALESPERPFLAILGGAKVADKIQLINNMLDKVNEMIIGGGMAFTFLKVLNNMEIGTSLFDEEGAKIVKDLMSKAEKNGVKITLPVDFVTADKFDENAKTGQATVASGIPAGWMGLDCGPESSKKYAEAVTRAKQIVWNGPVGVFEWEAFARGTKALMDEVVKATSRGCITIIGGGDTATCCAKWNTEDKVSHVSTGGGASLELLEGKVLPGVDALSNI
Procedure: FIG. 5A-E. A photoactivatable affinity probe-based approach identifies PGK1 as the relevant cellular target of CBR-470-1. (a) Silver staining and anti-biotin Western blots of ammonium sulfate fractionated lysates from UV-irradiated IMR32 cells treated with 5 μM for 1 hour with or without CBR-470-1 competition (250 μM) (n=3). Shown on the right are initial proteomic target results from gel-band digestion and LC-MS/MS analysis. (b) Dye-based thermal denaturation assay with recombinant PGK1 in the presence CBR-470-1 (20 μM) or vehicle alone (n=3). Calculated Tm values are listed. (c, d) Dose-dependent thermal stability assay of recombinant PGK1 and GAPDH in the presence of increasing doses of CBR-470-1 near the Tm of both proteins (57° C.) (c) (n=5) or room temperature (d) (n=3). Western blot of sample supernatants after centrifugation (13,000 rpm) detected total PGK1 and GAPDH protein, which were plotted in Prism (below). (e) ARE-LUC reporter activity in HEK293T cells with transient shRNA.
Isothermal dose response profiling of PGK1. In-vitro thermal profiling assay for recombinant proteins was performed by dissolving pure recombinant PGK1 and GAPDH into PBS and dividing equal amount of mixture into 9 aliquots. […] Samples were analyzed by SDS-PAGE and Western blot.

IMR32 = experiment: Seahorse XF96 global bioenergetics in IMR32 cells; format: cell-based; conditions: IMR32, 1 hr
Procedure: (§1) Cells were plated for 24 hrs., then incubated with the indicated doses of CBR-470 for 1 hr. Under CBR-470-1 treated conditions, cellular ECAR and OCR was recorded for CBR-470 alone, CBR-470+10 mM Glucose, and CBR-470+3 μM Oligomycin.
as §1, with “Genetic manipulation of central glycolytic targets GLO1 and PGK1 regulate viability in the very sensitive colorectal cancer cell line HCT116. […] (FIG. 42). […] Cells” for “Cells”

[1] = system: MHS cells (a murine alveolar macrophage cell line); experiment: PM- or LPS-induced mRNA expression in MHS cells; format: cell-based
Procedure: FIG. 14A-B. MHS cells (a murine alveolar macrophage cell line) were treated with particulate matter (PM) or LPS and vehicle control (media) in the absence or presence of CBR-470-1 (pretreated 4 hours prior to PM/LPS) and measured IL-6 mRNA 4 hours later.
FIG. 15A-B. MHS cells were treated with particulate matter (PM) or LPS and vehicle control (media) in the absence or presence of CBR-470-1 (also noted as Drug in the figure) (pretreated 4 hours prior to PM/LPS) and measured TNFa and NQO1 mRNA 4 hours later. […] NQO1 (NAD(P)H:quinone oxidoreductase), also known as DT-diaphorase, is a major regulator of oxidative stress and activator of mitomycins. ROS produced during metabolic processes are normally converted into harmless products by antioxidant enzymes such as NQO1.
FIG. 16A-B. MHS cells were treated with particulate matter (PM) or LPS and vehicle control (media) in the absence or presence of different doses of CBR-470 (pretreated 4 hours prior to PM/LPS) and measured IL-6 mRNA 4 hours later.
FIG. 17A-B. MHS cells were treated with particulate matter (PM) or LPS and vehicle control (media) in the absence or presence of different doses of CBR-470-1 (pretreated 4 hours prior to PM/LPS) and measured TNFa and NQO1 mRNA 4 hours later.
FIG. 18A-C. MHS cells were treated with particulate matter (PM) or LPS and vehicle control (media) in the absence or presence of CBR-470-1 (5 uM, pretreated 4 hours prior to PM/LPS) and measured IL-6, TNFa and NQO1 mRNA 4 hours and 24 hours later.

[2] = pretreated 4 hours, measured 4 hours later

## CC(C)CN[C@H]1CS(=O)(=O)C[C@@H]1S(=O)(=O)c1ccc(Cl)cc1 [CBR-470-1]
IMR32 cells
  viability in synergy matrix with BBGC: synergistic effects on viability rather than additivity
PGK1
  alteration of PGK1 stability, isothermal dose response against PGK1 and GAPDH: selective, dose-dependent alteration of PGK1 stability
IMR32
  glycolytic flux (Extracellular Acidification Rate, ECAR): reduced glycolytic flux and oxidative phosphorylation rate
  oxidative phosphorylation rate (Oxygen Consumption Rate, OCR): reduced glycolytic flux and oxidative phosphorylation rate
[1]; different doses, 4 hours
  NQO1 mRNA: induced NQO1 (Nrf2 target gene) under both PM and LPS in a dose dependent manner
  TNFa mRNA: attenuated PM- and LPS-induced TNFa mRNA expression
[1]; [2]
  IL-6 mRNA: abolished PM- and LPS-induced il6 mRNA expression
  NQO1 mRNA: induced NQO1 (Nrf2 target gene) under both PM and LPS
  TNFa mRNA: abolished PM- and LPS-induced TNFa mRNA expression
